Reference: the kinase profiling compilation of Christmann-Franck et al. (2016)
Values joined by “and” are separate entries in the source; they are usually repeats but may differ in a detail not shown here. Equal entries are not always repeated.

What was measured:
Assay in all cases: KINOMEscan competition binding
Conditions in all cases: compound 10.0 µM
[1] = biological target: TLK1 (human) (UniProt Q9UKI8)
[2] = biological target: RPS6KA6 KD1 (human) (UniProt Q9UK32)
[3] = biological target: CDKL5 (human) (UniProt O76039)
[4] = biological target: RPS6KA4 KD2 (human) (UniProt O75676)
[5] = biological target: EGFR (human) (UniProt P00533)
[6] = biological target: IKBKE (human) (UniProt Q14164)
[7] = biological target: CSNK1D (human) (UniProt P48730)
[8] = biological target: FGFR1 (human) (UniProt P11362)
[9] = biological target: ACVR2B (human) (UniProt Q13705)
[10] = biological target: VRK2 (human) (UniProt Q86Y07)
[11] = biological target: AKT2 (human) (UniProt P31751)
[12] = biological target: PRKACB (human) (UniProt P22694)
[13] = biological target: JAK3 JH1 catalytic (human) (UniProt P52333)
[14] = biological target: WEE2 (human) (UniProt P0C1S8)
[15] = biological target: PTK6 (human) (UniProt Q13882)
[16] = biological target: TNK1 (human) (UniProt Q13470)
[17] = biological target: FYN (human) (UniProt P06241)
[18] = biological target: MINK1 (human) (UniProt Q8N4C8)
[19] = biological target: CSK (human) (UniProt P41240)
[20] = biological target: PIK3C2B (human) (UniProt O00750)
[21] = biological target: PAK2 (human) (UniProt Q13177)
[22] = biological target: ZAP70 (human) (UniProt P43403)
[23] = biological target: PKN2 (human) (UniProt Q16513)
[24] = biological target: EPHA5 (human) (UniProt P54756)
[25] = system: FGFR3 (human), P22607 [G697C]
[26] = biological target: MAPK15 (human) (UniProt Q8TD08)
[27] = biological target: DMPK (human) (UniProt Q09013)
[28] = system: PIK3CA (human), P42336 [M1043I]
[29] = biological target: IRAK3 (human) (UniProt Q9Y616)
[30] = biological target: CASK (human) (UniProt O14936)
[31] = biological target: SRMS (human) (UniProt Q9H3Y6)
[32] = biological target: TNNI3K (human) (UniProt Q59H18)
[33] = biological target: AKT3 (human) (UniProt Q9Y243)
[34] = biological target: PIP4K2C (human) (UniProt Q8TBX8)
[35] = biological target: BTK (human) (UniProt Q06187)
[36] = biological target: LIMK1 (human) (UniProt P53667)
[37] = biological target: KIT (human) (UniProt P10721)
[38] = biological target: CDK15 (human) (UniProt Q96Q40)
[39] = biological target: MYO3B (human) (UniProt Q8WXR4)
[40] = biological target: MAP2K5 (human) (UniProt Q13163)

Chain of ZAP70 (human) (P43403 whole entry, looked up): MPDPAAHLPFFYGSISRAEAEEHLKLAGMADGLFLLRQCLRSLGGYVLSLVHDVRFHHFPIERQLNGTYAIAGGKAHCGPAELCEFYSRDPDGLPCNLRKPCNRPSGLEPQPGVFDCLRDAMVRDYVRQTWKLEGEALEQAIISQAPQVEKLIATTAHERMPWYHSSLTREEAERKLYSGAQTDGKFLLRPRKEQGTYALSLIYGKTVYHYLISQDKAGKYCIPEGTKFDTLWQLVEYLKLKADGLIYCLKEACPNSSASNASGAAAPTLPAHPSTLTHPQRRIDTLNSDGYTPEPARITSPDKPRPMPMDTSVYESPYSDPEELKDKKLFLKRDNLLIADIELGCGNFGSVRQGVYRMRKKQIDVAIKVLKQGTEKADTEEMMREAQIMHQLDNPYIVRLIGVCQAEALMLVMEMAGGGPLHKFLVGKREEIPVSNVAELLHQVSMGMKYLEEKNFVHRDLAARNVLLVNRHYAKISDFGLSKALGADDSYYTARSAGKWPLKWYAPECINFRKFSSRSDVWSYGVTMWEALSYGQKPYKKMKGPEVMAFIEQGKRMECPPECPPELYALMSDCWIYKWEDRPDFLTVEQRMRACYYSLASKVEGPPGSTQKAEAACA
Chain of IKBKE (human) (Q14164 whole entry, looked up): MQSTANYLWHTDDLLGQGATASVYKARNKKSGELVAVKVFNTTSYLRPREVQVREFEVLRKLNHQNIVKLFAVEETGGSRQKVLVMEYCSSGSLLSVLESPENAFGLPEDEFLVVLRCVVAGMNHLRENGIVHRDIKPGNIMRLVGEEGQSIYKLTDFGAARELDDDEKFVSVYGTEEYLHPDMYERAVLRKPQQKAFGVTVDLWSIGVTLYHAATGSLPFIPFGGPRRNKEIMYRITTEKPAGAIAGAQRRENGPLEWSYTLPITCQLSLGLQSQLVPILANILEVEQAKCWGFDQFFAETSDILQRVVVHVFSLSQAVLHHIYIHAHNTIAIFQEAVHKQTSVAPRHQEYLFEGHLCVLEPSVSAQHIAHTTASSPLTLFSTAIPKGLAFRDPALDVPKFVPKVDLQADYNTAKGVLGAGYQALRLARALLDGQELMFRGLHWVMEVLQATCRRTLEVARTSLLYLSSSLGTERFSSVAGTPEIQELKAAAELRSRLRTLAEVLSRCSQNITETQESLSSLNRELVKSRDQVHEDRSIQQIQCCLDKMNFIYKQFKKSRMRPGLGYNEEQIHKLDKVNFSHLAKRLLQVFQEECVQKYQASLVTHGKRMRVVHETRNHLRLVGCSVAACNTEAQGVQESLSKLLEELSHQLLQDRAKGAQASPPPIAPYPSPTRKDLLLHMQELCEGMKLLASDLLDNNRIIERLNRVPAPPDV
Chain of JAK3 JH1 catalytic (human) (P52333 whole entry, looked up): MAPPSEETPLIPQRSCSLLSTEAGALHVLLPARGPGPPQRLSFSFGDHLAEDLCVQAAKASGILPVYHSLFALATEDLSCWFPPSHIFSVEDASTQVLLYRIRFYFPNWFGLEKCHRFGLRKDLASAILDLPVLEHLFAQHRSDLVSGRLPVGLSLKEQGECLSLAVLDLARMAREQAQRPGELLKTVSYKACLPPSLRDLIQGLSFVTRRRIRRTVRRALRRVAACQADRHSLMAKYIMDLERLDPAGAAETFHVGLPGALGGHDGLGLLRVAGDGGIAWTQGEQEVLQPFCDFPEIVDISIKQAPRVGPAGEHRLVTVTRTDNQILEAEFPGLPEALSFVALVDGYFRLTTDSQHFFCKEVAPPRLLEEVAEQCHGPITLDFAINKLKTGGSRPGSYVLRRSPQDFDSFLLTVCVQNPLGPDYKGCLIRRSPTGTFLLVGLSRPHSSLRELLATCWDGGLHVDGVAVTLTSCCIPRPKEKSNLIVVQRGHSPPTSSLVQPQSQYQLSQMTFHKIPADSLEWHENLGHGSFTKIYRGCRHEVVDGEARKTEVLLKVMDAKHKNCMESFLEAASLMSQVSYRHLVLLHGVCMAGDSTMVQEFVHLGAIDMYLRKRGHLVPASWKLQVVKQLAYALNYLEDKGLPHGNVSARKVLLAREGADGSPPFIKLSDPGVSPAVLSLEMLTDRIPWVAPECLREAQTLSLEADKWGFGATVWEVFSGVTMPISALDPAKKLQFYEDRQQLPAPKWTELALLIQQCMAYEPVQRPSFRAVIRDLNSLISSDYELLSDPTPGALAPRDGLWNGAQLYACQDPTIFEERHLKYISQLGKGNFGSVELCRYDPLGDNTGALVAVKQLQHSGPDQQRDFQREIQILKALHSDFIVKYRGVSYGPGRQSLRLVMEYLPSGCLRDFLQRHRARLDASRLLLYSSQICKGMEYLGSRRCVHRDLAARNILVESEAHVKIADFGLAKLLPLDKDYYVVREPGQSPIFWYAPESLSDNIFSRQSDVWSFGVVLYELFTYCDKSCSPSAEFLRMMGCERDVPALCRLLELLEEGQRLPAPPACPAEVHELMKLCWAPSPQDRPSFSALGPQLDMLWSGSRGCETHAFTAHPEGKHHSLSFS
Chain of PIK3CA (human), P42336 [M1043I] (P42336 whole entry M1043I, looked up): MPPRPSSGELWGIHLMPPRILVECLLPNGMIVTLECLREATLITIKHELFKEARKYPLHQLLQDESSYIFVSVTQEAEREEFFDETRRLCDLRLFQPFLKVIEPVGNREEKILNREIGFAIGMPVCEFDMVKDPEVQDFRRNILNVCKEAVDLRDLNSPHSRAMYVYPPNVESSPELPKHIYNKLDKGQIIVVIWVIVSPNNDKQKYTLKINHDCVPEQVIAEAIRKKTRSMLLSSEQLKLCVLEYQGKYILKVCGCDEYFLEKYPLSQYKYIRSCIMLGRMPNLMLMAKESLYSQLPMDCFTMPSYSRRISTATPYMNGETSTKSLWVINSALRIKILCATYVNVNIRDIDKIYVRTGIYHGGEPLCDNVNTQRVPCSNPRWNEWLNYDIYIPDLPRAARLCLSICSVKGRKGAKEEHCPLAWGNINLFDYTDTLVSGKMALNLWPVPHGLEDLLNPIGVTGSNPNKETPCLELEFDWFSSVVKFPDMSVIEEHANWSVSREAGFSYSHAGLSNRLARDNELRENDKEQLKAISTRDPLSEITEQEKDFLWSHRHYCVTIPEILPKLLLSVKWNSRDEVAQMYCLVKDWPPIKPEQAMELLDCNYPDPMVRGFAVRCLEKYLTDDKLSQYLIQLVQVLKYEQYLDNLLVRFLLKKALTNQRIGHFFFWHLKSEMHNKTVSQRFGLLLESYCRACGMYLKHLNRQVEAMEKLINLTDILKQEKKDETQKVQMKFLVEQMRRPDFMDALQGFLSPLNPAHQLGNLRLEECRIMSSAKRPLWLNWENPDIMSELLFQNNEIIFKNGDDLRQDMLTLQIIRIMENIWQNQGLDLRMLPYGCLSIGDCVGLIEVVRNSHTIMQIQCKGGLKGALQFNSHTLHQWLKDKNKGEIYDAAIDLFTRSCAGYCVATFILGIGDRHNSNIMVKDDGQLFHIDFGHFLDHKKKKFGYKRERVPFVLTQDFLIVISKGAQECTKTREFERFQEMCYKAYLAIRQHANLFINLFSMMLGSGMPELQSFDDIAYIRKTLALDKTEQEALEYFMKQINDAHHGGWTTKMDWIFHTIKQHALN
Chain of FGFR1 (human) (P11362 whole entry, looked up): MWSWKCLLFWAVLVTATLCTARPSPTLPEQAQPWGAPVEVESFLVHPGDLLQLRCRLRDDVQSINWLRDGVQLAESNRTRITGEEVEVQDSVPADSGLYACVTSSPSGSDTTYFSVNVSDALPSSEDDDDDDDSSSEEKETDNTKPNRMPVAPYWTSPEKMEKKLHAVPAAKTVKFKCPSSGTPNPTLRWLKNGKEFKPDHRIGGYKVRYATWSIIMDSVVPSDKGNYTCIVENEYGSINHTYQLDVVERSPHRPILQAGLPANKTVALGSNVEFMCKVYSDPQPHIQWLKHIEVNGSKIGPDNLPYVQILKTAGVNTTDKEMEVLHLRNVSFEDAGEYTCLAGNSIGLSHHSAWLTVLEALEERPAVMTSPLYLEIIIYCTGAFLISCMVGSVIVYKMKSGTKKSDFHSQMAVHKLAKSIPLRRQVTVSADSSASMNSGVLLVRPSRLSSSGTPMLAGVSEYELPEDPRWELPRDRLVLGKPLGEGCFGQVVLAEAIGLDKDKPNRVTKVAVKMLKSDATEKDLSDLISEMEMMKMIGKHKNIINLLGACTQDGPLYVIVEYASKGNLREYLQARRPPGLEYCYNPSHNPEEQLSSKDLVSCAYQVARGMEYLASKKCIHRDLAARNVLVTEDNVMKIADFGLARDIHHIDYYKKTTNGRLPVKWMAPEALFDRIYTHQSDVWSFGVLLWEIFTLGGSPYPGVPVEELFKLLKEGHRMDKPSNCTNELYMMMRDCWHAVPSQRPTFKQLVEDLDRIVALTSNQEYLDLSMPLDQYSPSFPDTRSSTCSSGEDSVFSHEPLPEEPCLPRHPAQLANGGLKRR
Chain of ACVR2B (human) (Q13705 whole entry, looked up): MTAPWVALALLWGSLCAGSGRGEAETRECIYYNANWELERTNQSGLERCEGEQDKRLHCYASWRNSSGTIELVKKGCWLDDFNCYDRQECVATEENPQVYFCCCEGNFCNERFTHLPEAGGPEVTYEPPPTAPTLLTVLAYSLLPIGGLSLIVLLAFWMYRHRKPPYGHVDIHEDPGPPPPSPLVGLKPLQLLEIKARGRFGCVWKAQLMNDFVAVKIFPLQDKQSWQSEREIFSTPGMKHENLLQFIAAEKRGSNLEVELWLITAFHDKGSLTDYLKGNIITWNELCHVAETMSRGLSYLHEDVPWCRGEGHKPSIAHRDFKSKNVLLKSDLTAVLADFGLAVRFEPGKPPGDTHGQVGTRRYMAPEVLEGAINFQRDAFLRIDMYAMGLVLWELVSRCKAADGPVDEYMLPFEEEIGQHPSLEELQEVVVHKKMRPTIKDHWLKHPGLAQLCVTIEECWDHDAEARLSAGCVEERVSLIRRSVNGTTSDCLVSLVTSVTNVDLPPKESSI

| SMILES | kinase still bound, per cent of control [1] | kinase still bound, per cent of control [2] | kinase still bound, per cent of control [3] | kinase still bound, per cent of control [4] | kinase still bound, per cent of control [5] | kinase still bound, per cent of control [6] | kinase still bound, per cent of control [7] | kinase still bound, per cent of control [8] | kinase still bound, per cent of control [9] | kinase still bound, per cent of control [10] | kinase still bound, per cent of control [11] | kinase still bound, per cent of control [12] | kinase still bound, per cent of control [13] | kinase still bound, per cent of control [14] | kinase still bound, per cent of control [15] | kinase still bound, per cent of control [16] | kinase still bound, per cent of control [17] | kinase still bound, per cent of control [18] | kinase still bound, per cent of control [19] | kinase still bound, per cent of control [20] | also measured |
| --- | --- | --- | --- | --- | --- | --- | --- | --- | --- | --- | --- | --- | --- | --- | --- | --- | --- | --- | --- | --- | --- |
| C=CC(=O)Nc1ccc(C(=O)c2sc(Nc3ccc(N4CCN(C)CC4)cc3OC)nc2N)cc1 | 69% | 50% | 74% | 0.2% | 84% | 84% | 72% | 38% | 100% | 96% | 100% | 92% | 100% | 100% | 80% | 22% | 83% | 3.5% | 87% | 100% | kinase still bound, per cent of control [21]: 68%; kinase still bound, per cent of control [22]: 20%; kinase still bound, per cent of control [23]: 100%; kinase still bound, per cent of control [24]: 89%; kinase still bound, per cent of control [25]: 77%; kinase still bound, per cent of control [26]: 75%; kinase still bound, per cent of control [27]: 12%; kinase still bound, per cent of control [28]: 100%; kinase still bound, per cent of control [29]: 96%; kinase still bound, per cent of control [30]: 100%; kinase still bound, per cent of control [31]: 66%; kinase still bound, per cent of control [32]: 89%; kinase still bound, per cent of control [33]: 73%; kinase still bound, per cent of control [34]: 20%; kinase still bound, per cent of control [35]: 94%; kinase still bound, per cent of control [36]: 79%; kinase still bound, per cent of control [37]: 78%; kinase still bound, per cent of control [38]: 87%; kinase still bound, per cent of control [39]: 83%; kinase still bound, per cent of control [40]: 100% |
| CNC(=O)Nc1ccc(-c2nc(N3CC4CCC(C3)O4)c3cnn(C4CCC5(CC4)OCCO5)c3n2)cc1 | 86% | 87% | 79% | 100% | 62% | 100% | 92% | 100% | 77% | 100% | 100% | 87% | 90% | 100% | 55% | 78% | 70% | 100% | 100% | 25% | kinase still bound, per cent of control [21]: 99%; kinase still bound, per cent of control [22]: 83%; kinase still bound, per cent of control [23]: 83%; kinase still bound, per cent of control [24]: 92%; kinase still bound, per cent of control [25]: 74%; kinase still bound, per cent of control [26]: 25%; kinase still bound, per cent of control [27]: 83%; kinase still bound, per cent of control [28]: 4.4%; kinase still bound, per cent of control [29]: 100%; kinase still bound, per cent of control [30]: 64%; kinase still bound, per cent of control [31]: 97%; kinase still bound, per cent of control [32]: 59%; kinase still bound, per cent of control [33]: 86%; kinase still bound, per cent of control [34]: 100%; kinase still bound, per cent of control [35]: 90%; kinase still bound, per cent of control [36]: 95%; kinase still bound, per cent of control [37]: 91% and 93%; kinase still bound, per cent of control [38]: 100%; kinase still bound, per cent of control [39]: 91%; kinase still bound, per cent of control [40]: 93% |
| O=c1[nH]c2ccccc2n1C1CCN(Cc2ccc(-c3nc4cc5[nH]cnc5cc4nc3-c3ccccc3)cc2)CC1 | 100% | 75% | 86% | 82% | 65% | 100% | 18% | 73% | 100% | 76% | 100% | 100% | 95% | 96% | 100% | 91% | 100% | 88% | 93% | 54% | kinase still bound, per cent of control [21]: 74%; kinase still bound, per cent of control [22]: 99%; kinase still bound, per cent of control [23]: 92%; kinase still bound, per cent of control [24]: 100%; kinase still bound, per cent of control [25]: 89%; kinase still bound, per cent of control [26]: 100%; kinase still bound, per cent of control [27]: 98%; kinase still bound, per cent of control [28]: 100%; kinase still bound, per cent of control [29]: 100%; kinase still bound, per cent of control [30]: 79%; kinase still bound, per cent of control [31]: 65%; kinase still bound, per cent of control [32]: 100%; kinase still bound, per cent of control [33]: 100%; kinase still bound, per cent of control [34]: 83%; kinase still bound, per cent of control [35]: 100%; kinase still bound, per cent of control [36]: 86%; kinase still bound, per cent of control [37]: 95% and 89%; kinase still bound, per cent of control [38]: 76%; kinase still bound, per cent of control [39]: 100%; kinase still bound, per cent of control [40]: 72% |
